Source: patent publication US20170114030A1, “COMPOSITION WITH HIGH CONTENT OF CYCLIC DIPEPTIDE” (SUNTORY HOLDINGS LIMITED, priority 2014, published 2017)

What was measured:
NCI-H716 cells = assay: In vitro GLP-1 secretion-accelerating action (active GLP-1 ELISA); format: cell-based; conditions: for Significant difference (p < 0.05) vs control group, amount of active GLP-1 secreted: 1 hour, Student's t-test; for Amount of active GLP-1 secreted (relative value to control group as 100), Average value: after 1 hour, group with no cyclic dipeptide = 100
Method: (§1) In the Test Examples below, data were represented as average value±standard error. In Test Examples 1, 2, and 3, a Student's t-test was used for a statistical test, and in other Test Examples, one-way ANOVA was carried out for dispersion analysis followed by a multiple comparison test by using a Dunnet's test. […] All of these analyses were carried out by using an SPSS for Windows release 17.0 (manufactured by SPSS Inc.).
Among the cyclic dipeptides, 92 highly water-soluble cyclic dipeptides were used in the following experiment. In each well of a Poly-L-Lysine 96-well plate, NCI-H716 cells suspended in 100 μL of a DMEM (with 10% FBS, 2 mM glutamine, and 1% antibiotics added in advance) were seeded at 0.5×10^5 cells/well, and cultured in a CO2 incubator (manufactured by ESPEC CORP.) for 48 hours. After washing with PBS(+), 100 μL of a PBS(+) solution with each cyclic dipeptide at a final concentration of 10 mM and 10 μM of Sitagliptin phosphate added therein was added to the cells. After 1 hour, the resultant solution was recovered, and the amount of active GLP-1 in the solution was measured by using the ELISA kit. In the analysis, the amount of active GLP-1 for a group with no cyclic dipeptide added was defined as 100, and relative values thereto were used.
In each Table, cyclic dipeptides for which an in vitro active GLP-1 secretion-accelerating activity was found and was not found are listed.

plasma active GLP-1 = assay: In vivo plasma active GLP-1 level-increasing action after oral administration; set-up: species or system mice; conditions: 10 mg/kg orally; for Plasma active GLP-1 level (relative value to control group as 100), Average value: male C57/BL6J mice, blood after 30 minutes, 0.5% CMC-Na group = 100; for Significant difference (p < 0.05) vs control group, plasma active GLP-1 level: mice, 30 minutes, Student's t-test
Method: as §1
Among the cyclic dipeptides, cyclic dipeptides for which an in vitro GLP-1 secretion-accelerating action was found and highly lipid-soluble cyclic dipeptides were used in the following experiment. Seven-week-old male C57/BL6J mice were purchased from CLEA Japan, Inc. for use, and they were subjected to an experiment after 1 week of a habituation period. Each animal was grown in an animal room with an air conditioning system (temperature: 23.5±1.0° C., humidity: 55±10 RH %, air ventilation: 12 to 15 times/hour, illumination: from 7:00 to 19:00/day).
After the habituation period, the mice were subjected to 5.5 hours of food deprivation and 2 hours of water deprivation. Thereafter, a cyclic dipeptide dissolved or suspended in a 0.5% CMC-Na aqueous solution in 10 mg/kg was orally administered to each mouse forcibly. After 30 minutes, the blood was collected from the abdominal vena cava under anesthesia, and 1 μL of heparin sodium and 1 μL of 10 mM Sitagliptin phosphate were added to each collected blood, which was then subjected to centrifugation at 8000 rpm for 10 minutes to recover the plasma, and the plasma active GLP-1 level was measured by using the ELISA kit. In the analysis, the active GLP-1 level for a group administered with 0.5% CMC-Na aqueous solution was defined as 100, and relative values thereto were used.
In each Table, cyclic dipeptides for which an in vivo plasma active GLP-1 level-increasing action was found and was not found are listed.

[1] = Experiment 2, cyclic dipeptide 10 mM with 10 μM Sitagliptin phosphate
[2] = Experiment 4, cyclic dipeptide 10 mM with 10 μM Sitagliptin phosphate

SMILES	Significant difference (p < 0.05) vs control group, amount of active GLP-1 secreted (NCI-H716 cells; Experiment 1, 10 mM)	Amount of active GLP-1 secreted (relative value to control group as 100), Average value (NCI-H716 cells; Experiment 1, cyclic dipeptide 10 mM with 10 μM Sitagliptin phosphate)	Plasma active GLP-1 level (relative value to control group as 100), Average value (plasma active GLP-1; Experiment 1)	Significant difference (p < 0.05) vs control group, plasma active GLP-1 level (plasma active GLP-1; Experiment 1)	Significant difference (p < 0.05) vs control group, amount of active GLP-1 secreted (NCI-H716 cells; Experiment 2, 10 mM)	Amount of active GLP-1 secreted (relative value to control group as 100), Average value (NCI-H716 cells; [1])	Significant difference (p < 0.05) vs control group, amount of active GLP-1 secreted (NCI-H716 cells; Experiment 4, 10 mM)	Amount of active GLP-1 secreted (relative value to control group as 100), Average value (NCI-H716 cells; [2])	Plasma active GLP-1 level (relative value to control group as 100), Average value (plasma active GLP-1; Experiment 2)	Significant difference (p < 0.05) vs control group, plasma active GLP-1 level (plasma active GLP-1; Experiment 2)
C[C@@H]1NC(=O)[C@H](CO)NC1=O [compound 25]	Yes	257	158	Yes	–	–	–	–	–	–
O=C1N[C@@H](Cc2c[nH]c3ccccc23)C(=O)N[C@H]1Cc1c[nH]cn1 [compound 60]	–	–	129	No	Yes	260	–	–	–	–
NCCCC[C@@H]1NC(=O)[C@H](Cc2ccccc2)NC1=O [compound 63]	–	–	206	Yes	Yes	220	–	–	–	–
CCC(C)C1NC(=O)C(CCC(N)=O)NC1=O (stereo not drawn) [compound 182]	–	–	–	–	–	–	Yes	445	188	Yes
C[C@@H]1NC(=O)C2CCCN2C1=O (stereo partly drawn) [compound 187]	–	–	–	–	–	–	Yes	1186	217	Yes
NC(=O)CCC1NC(=O)C(Cc2c[nH]cn2)NC1=O (stereo not drawn) [compound 191]	–	–	–	–	–	–	Yes	743	247	Yes
O=C(O)CC1NC(=O)C(CO)NC1=O (stereo not drawn) [compound 193]	–	–	–	–	–	–	Yes	509	266	Yes
CC(C)C1NC(=O)C(CCCNC(=N)N)NC1=O (stereo not drawn) [compound 194]	–	–	–	–	–	–	Yes	498	237	Yes
CSCCC1NC(=O)C(CCCNC(=N)N)NC1=O (stereo not drawn) [compound 199]	–	–	–	–	–	–	Yes	652	217	Yes
